The record followed here is patent US10537548B2, “Composition and medical product for reducing body weight and body fat, and use of said product” (Caliway Biopharmaceuticals Co., Ltd., priority 2014, dated 2020).

This experiment can be described thus: Animal Experiment I, drug administration during obesity induction (high-fat diet). The class given is in vivo, B6 female mice. The settings on record: oral gavage daily, 8 weeks, compared to obesity control group. As for the experimental part: In this experimental example, 8-week old B6 female mice were experimented and divided into a normal control group, an obesity control group, a resveratrol group (the administered dose of resveratrol was 61.5 mg/kg B.W.), a green tea extract group (the administered dose of green tea extract was 123 mg/kg B.W.), and the plant extract compositions ME001 of the present invention group (the administered dose of ME001 was 676.5 mg/kg B.W.) Five female mice were included in each group for experimentation. During the experimental period, with the exception of the normal control group, the other groups were fed with high-fat diet for eight consecutive weeks to induce obesity symptoms, and were also fed by oral gavage with the test substance daily during the same eight weeks. The obesity control group was fed by oral gavage with an equal volume of sterile water, and the difference in body weight of each group of mice was evaluated. The body weight and average food intake of each animal were recorded weekly during the experimental period. The mice were sacrificed after the experimentation. […] The data of each group are expressed as mean±SD. Letters a, b, and c indicate the results of statistical analysis, wherein different letters indicate significant statistical difference between groups (p<0.05), and identical letters indicate no significant statistical difference between groups (p>0.05).

As for `Oc1ccc(C=Cc2cc(O)cc(O)c2)cc1` [resveratrol], the “total body weight gain” value is on record as “did not show statistical difference”.
